Test results taken from patent US6753409B1, “STABLE NON-HYGROSCOPIC CRYSTALLINE FORM OF N-[N-[N-(4-(PIPERIDIN-4-YL)BUTANOYL)-N-ETHYLGLYCYL]ASPARTYL]-L-β-CYCLOHEXYL ALANINE AMIDE, INTERMEDIATES THEREOF, AND PREPARATION THEREOF AND OF ANTITHROMBOTIC AZACYCLOALKYLALKANOYL PEPTIDES AND PSEUDOPEPTIDES” (Aventis Pharmaceuticals Inc., priority 1996, dated 2004).
Like-named read-outs stand apart in the source and are kept apart here.

Assays:
[1] = system: fixed activated platelets; experiment: Platelet Aggregation Assay (fixed-activated platelets, aggregation initiated by human fibrinogen); type: cell-based; conditions: human fibrinogen 250 μg/mL, read-out: Inhibition of Fixed Platelet Aggregation (IC50 μM)
Text: (§1) The Platelet Aggregation Assay is based on that described in Blood 66 (4), 946-952 (1985). The Fibrinogen-Binding Assay is essentially that of Ruggeri, Z. M., et al., Proc. Nail. Acad. Sci. USA 83, 5708-5712 (1986) and Plow, E. F., et al., Proc. Natl. Acad Sci., USA 82, 8057-8061 (1985). The Inhibition of ADP-lndticed ex-vivo Platelet Aggregation assay is based on that of Zucker, “Platelet Aggregation Measured by the Photoelectric Method”, Methods in Enzymology 169, 117-133 (1989).
Platelets are isolated from human platelet concentrates using the gel-filtration technique as described by Marguerie, G. A. et al., J. Biol. Chem. 254, 5357-5363 (1979) and Ruggeri, Z. M. et al., J. Clin. Invest. 72, 1-12 (1983). The platelets are suspended at a concentration of 2×10^8 cells/mL in a modified calcium-free Tyrode's buffer containing 127 mM sodium chloride, 2 mM magnesium chloride, 0.42 mM Na2HPO4, 11.9 mM NaHCO3, 2.9 mM KCl, 5.5 mM glucose, 10 mM HEPES, at a pH of 7.35 and 0.35% human serum albumin (HSA). […]
The fixed activated platelets are incubated with a selected dose of the compound to be tested for platelet aggregation inhibition for one minute andfaggregation initiated by addition of human fibrinogen to a final concentration of 250 μg/mL. […] The extent of inhibition of aggregation is expressed as the percentage of the rate of aggregation observed in the absence of inhibitor. […]

[2] = system: ADP-induced platelet aggregation in platelet rich plasma; experiment: Inhibition of ADP-Induced ex-vivo Platelet Aggregation after oral administration; type: in vivo, mongrel dogs; conditions: dog, 5 mg/kg; for % Inhibition of ex-vivo Platelet Aggregation After Oral Administration, 1 h: 1 h after dosing; for % Inhibition of ex-vivo Platelet Aggregation After Oral Administration, 3 h: 3 h after dosing
Text: as §1
Control blood samples are obtained 5-10 minutes prior to administration of a test compound in mongrel dogs weighing from 10 to 20 Kg. The compound is administered intragasticly, via aqueous gavage, or orally, via gelatin capsule. Blood samples (5 ml) are then obtained at 30 minute intervals for 3 hours, and at 6, 12, and 24 hours after dosing. Each blood sample is obtained by venipuncture of the cephalic vein and is collected directly into a plastic syringe containing one part 3.8% trisodium citrate to nine parts blood.
The blood samples are centrifuged at 1000 rpm for 10 minutes to obtain platelet rich plasma (PRP). After removal of the PRP, the sample is centrifuged for an additional 10 minutes at 2000 rpm to obtain platelet poor plasma (PPP). Platelet count in the PRP is determined by using a Coulter Counter (Coulter Electronics, Hialeah, Fla.). If the concentration of platelets in the PRP is greater than 300,000 platelets/μL, then the PRP is diluted with PPP to adjust the platelet count to 300,000 platelets/μL. Aliquots of PRP (250 μL) are then placed in siliconized glass cuvettes (7.25×55 mm, Bio/Data Corp., Horsham, Pa.). Epinephrine (final concentration of 1 μM) is then added to the PRP, which is incubated for one minute at 37° C. A stimulator of platelet aggregation ADP at a final concentration of 10 μM, is then added to the PRP. Platelet aggregation is monitored spectrophotometrically utilizing a light transmission aggregometer (Bio/Data Platelet Aggregation Profiler, Model PAP-4, Bio/Data Corp., Horsham, Pa.). For the testing of a compound, the rate of change (slope) of light transmittance and the maximum light transmittance (maximum aggregation) is recorded in duplicate. Platelet aggregation data are reported as the percent decrease (mean±SEM) in slope or maximum aggregation as compared to data obtained from control PRP, which is prepared from blood samples obtained prior to administration of the test compound.

[3] = Hygroscopicity and physical stability of the material prepared according to WO95/10295 (statement); type: physicochemical
[4] = Isothermal microcalorimetry of solid state form conversion (Thermal Activity Monitor); type: physicochemical; conditions: for thermal activity (form conversion) on exposure to humidity: 80% RH (saturated KCl solution), over 30 hours; for time for conversion of hygroscopic to non-hygroscopic form: 80% RH
Description: Isothermal microcalorimetry experiments on hygroscopic and non-hygroscopic crystalline forms of N-[N-[N-(4-piperdin-4-yl)butanoyl)-N-ethylglycyl]-(L)-aspartyl]-(L)-β-cyclohexylalanine amide are performed on a Thermometric® Thermal Activity Monitor (TAM). Solid state conversions of the different chrystalline forms are studied by exposing the forms to different humidities or solvent vapors at different temperatures. The saturated salt solutions used to obtain different humidities were: KCl (80% RH), NaCl (75% RH), and NaBr (65% RH). Approximately 100 mg quantities of the forms are weighed into a TAM glass ampule and a microhygrostate containing a saturated salt solution (with excess solid) or an organic solvent is placed inside the ampule. The ampule is sealed, equilibrated to the temperature of the experiment, and lowered into the measuring position in the TAM. An identical system containing washed sea sand, in place of the form subject to testing, is placed on the reference side. Output power (μW) is measured as a function of time (FIGS. 6-8).

[5] = Moisture sorption isotherms (VTI MB300G moisture balance); type: physicochemical; conditions: 25° C.; for desorption to original weight %: decreasing RH
Description: Moisture Sorption Isotherms of hygroscopic and non-hygroscopic crystalline forms of N-[N-[N-(4-piperdin-4-yl)butanoyl)-N-ethylglycyl]-(L)-aspartyl]-(L)-β-cyclohexylalanine amide are obtained on a VTI MB300G moisture balance. The experiments are conducted either by subjecting approximately 15 mg of the subject crystalline form to increasing and decreasing steps of % RH and following the weight gain (at each equilibrium step) as a function of % RH (FIG. 9) or by holding the subject crystalline form at constant humidity and following the weight gain as a function of time.

O=C(O)C[C@H](NC(=O)CNC(=O)CCCC1CCNCC1)C(=O)N[C@@H](Cc1c[nH]c2ccccc12)C(=O)O [Compound of EPA ‘481, 4-4(piperidyl)butanoyl glycyl aspartyl tryptophan, reference compound]
IC50 [1]: 0.047 µM
% Inhibition of ex-vivo Platelet Aggregation After Oral Administration, 1 h [2]: 53%
% Inhibition of ex-vivo Platelet Aggregation After Oral Administration, 3 h [2]: <20%

CCN(CC(=O)N[C@@H](CC(=O)O)C(=O)N[C@@H](CC1CCCCC1)C(N)=O)C(=O)CCCC1CCNCC1 [Example 15]
IC50 ([1]; Platelet): 0.097 µM
% Inhibition of ex-vivo Platelet Aggregation After Oral Administration, 1 h [2]: 100%
% Inhibition of ex-vivo Platelet Aggregation After Oral Administration, 3 h [2]: 100%
% Inhibition of ex-vivo Platelet Aggregation After Oral Administration, 6 h ([2]; 6 h after dosing): 100%
% Inhibition of ex-vivo Platelet Aggregation After Oral Administration, 12 h ([2]; 12 h after dosing): 98%
% Inhibition of ex-vivo Platelet Aggregation After Oral Administration, 24 h ([2]; 24 h after dosing): 50%

CCN(CC(=O)N[C@@H](CC(=O)O)C(=O)N[C@@H](CC1CCCCC1)C(N)=O)C(=O)CCCC1CCNCC1 [N-[N-[N-(4-(piperdin-4-yl)butanoyl)-N-ethylglycyl]-(L)-aspartyl]-(L)-β-cyclohexylalanine amide]
hygroscopicity and physical stability [3]: hygroscopic and is physically unstable as it absorbs moisture

CCN(CC(=O)N[C@@H](CC(=O)O)C(=O)N[C@@H](CC1CCCCC1)C(N)=O)C(=O)CCCC1CCNCC1 [hygroscopic crystalline form]
effect of relative humidity on rate of conversion to non-hygroscopic form ([4]; 60° C., 65% RH, 75% RH, 80% RH and 100% RH): higher relative humidities produce a faster conversion
thermal activity (form conversion) on exposure to humidity ([4]; 40° C., listed as hygroscopic form): strong exothermic event takes place
time for conversion of hygroscopic to non-hygroscopic form ([4]; 40° C.): approximately 24 hours
time for conversion of hygroscopic to non-hygroscopic form ([4]; 50° C.): ~6.5 h
time for conversion of hygroscopic to non-hygroscopic form ([4]; 60° C.): ~3 h
liquification during conversion ([4]; 100% RH, 60° C.): without the liquification
thermal activity (form conversion) on exposure to methanol vapors ([4]; methanol vapors, 40° C.): no exothermic conversion event takes place
desorption to original weight % ([5]; listed as hygroscopic form): does not desorb to its original weight %
% weight gain vs. % RH (water uptake) ([5]; increasing RH, more pronounced above 60% RH): picks up more water than the non-hygroscopic form as the RH increases

CCN(CC(=O)N[C@@H](CC(=O)O)C(=O)N[C@@H](CC1CCCCC1)C(N)=O)C(=O)CCCC1CCNCC1 [non-hygroscopic form]
thermal activity (form conversion) on exposure to humidity ([4]; 40° C.): no exothermic conversion event takes place
desorption to original weight % [5]: does desorb to its original weight %
